Where two headings read alike, the source gives them in different places.
Legend:
ZIKV Paraiba/2015 [1] = test: Microplaque reduction assay, ZIKV Paraiba/2015 in A549 cells, post-infection treatment; type: cell-based; conditions: for IC50: Zika virus, A549, 36 h; for selectivity ratio at 36 h: human, A549 cells infected with ZIKV Paraiba/2015, Paraiba/2015, A549 cells, post-treatment, read-out: SI (selective index, CC50/IC50)
ZIKV Paraiba/2015 [2] = test: Microplaque reduction assay, ZIKV Paraiba/2015 in Vero cells, post-infection treatment; type: cell-based; conditions: for selectivity ratio at 36 h: African green monkey, Vero cells infected with ZIKV Paraiba/2015, Paraiba/2015, Vero cells, read-out: SI (selective index, CC50/IC50); for IC50: Zika virus, Vero
[3] = Cell viability assay (CellTiter 96), A549 cells; type: cell-based, human; conditions: human; for CC50 at 36 h: 36 h post-treatment; for CC50 at 72 h: 72 h post-treatment
Method: (§1) Cell viability in Vero and A549 cells was measured using the CellTiter 96 Non-Radioactive Cell Proliferation assay (Promega) following the manufacturer’s instructions. […] Plates were incubated at 37°C in a 5% CO2 atmosphere for 36 or 72 h. Samples were treated with 15 μl of Dye Solution and incubated at 37°C in a 5% CO2 atmosphere for 4 h. Next, cells were treated with 100 μl of Solubilization Solution/Stop Mix and absorbance at 570 nm was measured using a Vmax kinetic microplate reader (Molecular Devices, Waltham, MA, United States). Viability of compound-treated cells was calculated as a percentage relative to values obtained with DMSO-treated cells. Non-linear regression curves and the median cytotoxic concentration (CC50) were calculated using GraphPad Prism software version 8.0.

[4] = Cell viability assay (CellTiter 96), Vero cells; type: cell-based, African green monkey; conditions: African green monkey; for CC50 at 36 h: 36 h post-treatment; for CC50 at 72 h: 72 h post-treatment
Method: as §1

ZIKV [5] = system: ZIKV; parameters: method as in Kuivanen et al., 2017; conditions: human retinal pigment epithelial (RPE) cells; ref Kuivanen et al., 2017; cited from earlier work
ZIKV [6] = system: ZIKV; parameters: method as in Yang et al., 2018; conditions: ENV+ cells; ref Yang et al., 2018; cited from earlier work
ZIKV [7] = system: ZIKV; parameters: method as in Yang et al., 2018; conditions: SNB-19 cells; ref Yang et al., 2018; cited from earlier work
ZIKV [8] = system: ZIKV; parameters: method as in Bullard-Feibelman et al., 2017; conditions: Jar cells; ref Bullard-Feibelman et al., 2017; cited from earlier work
ZIKV [9] = system: ZIKV; parameters: method as in Bullard-Feibelman et al., 2017; conditions: Huh-7 cells; ref Bullard-Feibelman et al., 2017; cited from earlier work
ZIKV Puerto Rico/2015 = test: Microplaque reduction assay, ZIKV Puerto Rico/2015 in Vero cells
ZIKV Paraiba/2015 [10] = test: Microplaque reduction assay, pre-treatment of Vero cells before ZIKV Paraiba/2015 infection; type: cell-based; conditions: for IC50: Zika virus, Vero, fixed 36 h p.i.
[11] = system: caspase 3 and 7 activities; test: Apoptosis assay (Caspase-Glo 3/7), ZIKV-infected Vero cells; conditions: 250 μM
ZIKV Uganda/1947 = test: Microplaque reduction assay, ZIKV Uganda/1947 in Vero cells
ZIKV Paraiba/2015 [12] = test: Virus growth kinetics, ZIKV Paraiba/2015 in Vero cells; type: cell-based, Zika virus
Method: (§2) At 12, 24, 48, and 72 h post-infection (h p.i.), tissue culture supernatants were collected and titrated on Vero cells by immunostaining as described previously ([Marquez-Jurado et al., 2018]).
(§3) Dotted line indicates the limit of detection (20 FFU/ml).

ZIKV Nigeria/1968 = test: Microplaque reduction assay, ZIKV Nigeria/1968 in Vero cells
Vaccinia virus = conditions: 30 mg/kg/day, ref Smee et al., 2010; cited from earlier work
[13] = system: caspase 3 and 7 activities; test: Apoptosis assay (Caspase-Glo 3/7), ZIKV-infected A549 cells; conditions: 250 μM
[14] = system: ZIKV French Polynesia/2013; test: Microplaque reduction assay, ZIKV French Polynesia/2013 in Vero cells
[15] = system: ZIKV-induced CPE in Vero cells; test: ZIKV-induced cytopathic effect (light microscope), Vero cells; type: cell-based, African green monkey; conditions: MOI 0.1, 48 h p.i., 25 μM and more clearly 250 μM
A549 cells = test: Cell viability assay (CellTiter 96), A549 cells; type: cell-based, human; conditions: 36 or 72 h post-treatment, up to highest concentration tested (1,000 μM)
Method: as §1

[16] = system: ZIKV-induced CPE in A549 cells; test: ZIKV-induced cytopathic effect (light microscope), A549 cells; type: cell-based, human; conditions: MOI 0.1, 48 h p.i., 25 μM and more clearly 250 μM
ZIKV Paraiba/2015 [17] = test: Virus growth kinetics, ZIKV Paraiba/2015 in A549 cells; type: cell-based, Zika virus
Method: as §2, §3

Vero cells = test: Cell viability assay (CellTiter 96), Vero cells; type: cell-based, African green monkey; conditions: 36 or 72 h post-treatment, up to highest concentration tested (1,000 μM)
Method: as §1

[18] = reading time not stated at the place (assay read at 36 and 72 h)

With `CCOC(=O)c1c(CSc2ccccc2)n(C)c2cc(Br)c(O)c(CN(C)C)c12` [ARB, Arbidol] as the compound, how does the IC50 (ZIKV Paraiba/2015 [1]) read?
Its IC50 is 51.9 ± 1.08 µM.

And the selectivity ratio at 36 h (ZIKV Paraiba/2015 [1])?
Its selectivity ratio at 36 h is 2.21.

What about the selectivity ratio at 36 h (ZIKV Paraiba/2015 [2]; post-treatment, 36 h) of the same compound?
Its selectivity ratio at 36 h is 4.11.

What about the IC50 (ZIKV Paraiba/2015 [2]; 36 h) of the same compound?
Its IC50 is 18.2 ± 1.16 µM.

What about the CC50 at 36 h [3] of the same compound?
The CC50 at 36 h was 114.6 ± 1.08 µM.

And the CC50 at 72 h [3]?
Its CC50 at 72 h is 91 ± 1.08 µM.

What about the CC50 at 36 h [4] of the same compound?
Its CC50 at 36 h is 74.7 ± 1.09 µM.

What about the CC50 at 72 h [4] of the same compound?
The CC50 at 72 h was 59.4 ± 1.1 µM.

With `COC1=CC(c2cc3ccccc3[nH]2)=N/C1=C\c1[nH]c(C)cc1C` [obatoclax] as the compound, how does the SI (ZIKV [5]) read?
Its SI is 65.

Which SI (ZIKV [5]) does the source give for `C[C@H]1C/C=C/Cc2cccc(O)c2C(=O)O[C@@H](C/C=C/NC(=O)C#Cc2ccccc2)C[C@H]1O` [saliphenylhalamide] here?
Its SI is greater than 200.

For `CC[C@H]1CN2CCc3cc(OC)c(OC)cc3[C@@H]2C[C@@H]1C[C@H]1NCCc2cc(OC)c(OC)cc21` [emetine], which SI (ZIKV [6]) is on record?
The SI was 2.88.

And the SI (ZIKV [7])?
The SI was 9.84.

Which SI (ZIKV [8]) does the source give for `CC(C)OC(=O)[C@H](C)N[P@](=O)(OC[C@H]1O[C@@H](n2ccc(=O)[nH]c2=O)[C@](C)(F)[C@@H]1O)Oc1ccccc1` [sofosbuvir] here?
Its SI is greater than 90.9.

What about the SI (ZIKV [9]) of the same compound?
Its SI is greater than 52.63.

Which selectivity ratio at 48 h (ZIKV Puerto Rico/2015; African green monkey, Vero cells infected with ZIKV Puerto Rico/2015) does the source give for `O=C(O)C1=CC(=C(c2ccc(O)c(C(=O)O)c2)c2ccc(O)c(C(=O)O)c2)C=CC1=O` [ATA, aurintricarboxylic acid] here?
Its selectivity ratio at 48 h is greater than 57.

And the IC50 (ZIKV Puerto Rico/2015; Zika virus, Vero, 48 h)?
The IC50 was 17.6 ± 1.16 µM.

What about the selectivity ratio at 12 h (ZIKV Paraiba/2015 [10]; African green monkey, pre-treatment 12 h, read-out: SI (selective index, CC50/IC50)) of the same compound?
The selectivity ratio at 12 h was greater than 69.8.

What about the selectivity ratio at 24 h (ZIKV Paraiba/2015 [10]; African green monkey, pre-treatment 24 h, read-out: SI (selective index, CC50/IC50)) of the same compound?
Its selectivity ratio at 24 h is greater than 75.9.

And the selectivity ratio at 48 h (ZIKV Paraiba/2015 [10]; African green monkey, pre-treatment 48 h, read-out: SI (selective index, CC50/IC50))?
The selectivity ratio at 48 h was greater than 79.4.

And the selectivity ratio at 72 h (ZIKV Paraiba/2015 [10]; African green monkey, pre-treatment 72 h, read-out: SI (selective index, CC50/IC50))?
Its selectivity ratio at 72 h is greater than 95.2.

And the IC50 (ZIKV Paraiba/2015 [10]; pre-treatment 12 h before infection)?
The IC50 was 14.3 ± 1.06 µM.

What about the IC50 (ZIKV Paraiba/2015 [10]; pre-treatment 24 h before infection) of the same compound?
The IC50 was 13.2 ± 1.05 µM.

And the IC50 (ZIKV Paraiba/2015 [10]; pre-treatment 48 h before infection)?
Its IC50 is 12.6 ± 1.02 µM.

What about the IC50 (ZIKV Paraiba/2015 [10]; pre-treatment 72 h before infection) of the same compound?
Its IC50 is 10.5 ± 1.05 µM.

And the “caspase 3 and 7 induction as compared to mock-infected cells” value [11]?
The value was 0.4 fold.

What about the selectivity ratio at 48 h (ZIKV Uganda/1947; African green monkey, Vero cells infected with ZIKV Uganda/1947) of the same compound?
The selectivity ratio at 48 h was greater than 66.3.

And the IC50 (ZIKV Uganda/1947; Zika virus, Vero, 48 h)?
The IC50 was 15.1 ± 1.19 µM.

And the “ZIKV replication (viral titer in supernatant)” value (“ZIKV replication” for short) (ZIKV Paraiba/2015 [12]; MOI 0.1, 2.5 μM)?
Its value is “partial viral inhibition”.

And the “ZIKV replication” value (ZIKV Paraiba/2015 [12]; MOI 0.1, 250 μM)?
The value was “completely inhibited”.

And the IC50 (ZIKV Paraiba/2015 [1])?
The IC50 was 33.3 ± 1.13 µM.

And the selectivity ratio at 36 h (ZIKV Paraiba/2015 [1])?
Its selectivity ratio at 36 h is 26.3.

What about the selectivity ratio at 60 h (ZIKV Nigeria/1968; African green monkey, Vero cells infected with ZIKV Nigeria/1968) of the same compound?
Its selectivity ratio at 60 h is greater than 62.6.

And the IC50 (ZIKV Nigeria/1968; Zika virus, Vero, 60 h)?
Its IC50 is 16 ± 1.02 µM.

What about the selectivity ratio at 36 h (ZIKV Paraiba/2015 [2]; post-treatment, 36 h) of the same compound?
Its selectivity ratio at 36 h is 72.1.

And the “SI (selective index, CC50/IC50)” value (ZIKV Paraiba/2015 [2]; Paraiba/2015, Vero cells, post-treatment, 36 h)?
The value was greater than 72.10.

What about the “SI (selective index), range in Vero cells” value (ZIKV Paraiba/2015 [2]; Vero cells, range over all ZIKV strains and pre-/post-treatment settings of this study) of the same compound?
Its value is 56.98–95.24.

And the IC50 (ZIKV Paraiba/2015 [2]; 36 h)?
The IC50 was 13.9 ± 1.09 µM.

What about the “protection of mice from a lethal challenge” value (Vaccinia virus) of the same compound?
The value was “did not protect”.

What about the “caspase 3 and 7 induction as compared to mock-infected cells” value [13] of the same compound?
The value was 1.7 fold.

What about the selectivity ratio at 48 h ([14]; African green monkey, Vero cells infected with ZIKV French Polynesia/2013) of the same compound?
The selectivity ratio at 48 h was greater than 76.8.

What about the IC50 ([14]; Zika virus, Vero, 48 h) of the same compound?
Its IC50 is 13.9 ± 1.01 µM.

What about the “ZIKV-induced CPE” value [15] of the same compound?
The value was “able to prevent ZIKV-induced CPE”.

What about the “toxicity (cell viability)” value (A549 cells) of the same compound?
Its value is “did not observe any toxicity”.

And the CC50 at 36 h [3]?
Its CC50 at 36 h is greater than 1000 µM.

And the CC50 at 72 h [3]?
The CC50 at 72 h was greater than 1000 µM.

And the CC50 [3, 18]?
Its CC50 is greater than 1000 µM.

And the “ZIKV-induced CPE” value [16]?
Its value is “able to prevent ZIKV-induced CPE”.

And the “ZIKV replication” value (ZIKV Paraiba/2015 [17]; MOI 0.1, 25 μM)?
The value was “partial viral inhibition”.

What about the “ZIKV replication” value (ZIKV Paraiba/2015 [17]; MOI 0.1, 250 μM) of the same compound?
Its value is “completely inhibited”.

What about the “toxicity (cell viability)” value (Vero cells) of the same compound?
The value was “did not observe any toxicity”.

What about the CC50 at 36 h [4] of the same compound?
The CC50 at 36 h was greater than 1000 µM.

And the CC50 at 72 h [4]?
The CC50 at 72 h was greater than 1000 µM.

And the CC50 [4, 18]?
Its CC50 is greater than 1000 µM.

Which SI (ZIKV [5]) does the source give for `Nc1ccn([C@@H]2O[C@H](CO)[C@@H](O)C2(F)F)c(=O)n1` [gemcitabine] here?
Its SI is > 1,000.

From paper PMC6473159, “Potent Inhibition of Zika Virus Replication by Aurintricarboxylic Acid” (Frontiers in Microbiology, 2019)
